Data from patent US20160024203A1, “METHODS OF PRODUCING ANTIBODIES IN YEAST” (BRISTOL-MYERS SQUIBB COMPANY, priority 2013, published 2016).

Legend:
[1] = tested on: P. pastoris; test: Effects of hydroxyurea on cell growth and antibody productivity in P. pastoris fermentation (Run 01MAY11); type: cell-based, Pichia pastoris; settings: for Sup Titer (Normalized): anti-IL-6 antibody supernatant titer; for Sup Titer (Normalized) / WB Titer (Normalized): lots T5, T6 and T10 + hydroxyurea 2.6-2.8 g/L; for WCW: lots T5, T6 and T10 + hydroxyurea 2.6-2.8 g/L added 5 hours after feed start, triplicate bioreactors; for WB Titer (Normalized): whole broth titer = supernatant titer*(1-WCW/1000)
Protocol: The glucose and ethanol were measured by YSI 2700 (YSI Incorporated, Yellow Springs, Ohio), O2 and CO2 of the exhaust line were measured by Questor GP Process Mass Spectrometer (ABB Extrel, Pittsburgh, Pa.) and the RQ value was calculated using below Equation [1]. The wet cell weight (WCW) was measured by centrifuging one (1) milliliter (mL) fermentation broth at 13,200 rpm for 10 minutes, weighing pellet, and calculated ratio of pellets weight (g) over volume (mL). The supernatant titer (g/L) was measured by the HPLC method and the whole broth (WB) titer was then calculated by below Equation[2]. Non reduced and reducing SDS-PAGE gels are performed following standard method.
WB_Titer=Supernatant_Titer*(1−WCW/1000)
The treatment cultures were operated the same way plus adding hydroxyurea 5 hours after feed start.

[2] = tested on: suspended S. cerevisiae cells; settings: 5.7 g/L hydroxyurea; cited from earlier work

Q: Which “average whole broth titer” value ([1]; 90 hours run time, three hydroxyurea treatment lots, three control lots 59.8) does the source give for `NC(=O)NO` [Hydroxyurea] here?
A: 75 normalized units

Q: And the “WCW reached/maintained by hydroxyurea treatment lots” value ([1]; after peak cell density at 30-40 hours, control lots ~400 g/Kg, FIG. 8)?
A: ~450 g/kg

Q: And the “Sup Titer (Normalized)” value ([1]; age 59 h)?
A: 83.9 ± 2.2 Normalized

Q: And the WCW ([1]; age 59 h)?
A: 437 ± 17 g/kg

Q: And the “WB Titer (Normalized)” value ([1]; age 59 h)?
A: 47.2 ± 1.8 Normalized

Q: What about the “Sup Titer (Normalized)” value ([1]; age 90 h) of the same compound?
A: 123.3 ± 5.8 Normalized

Q: And the WCW ([1]; age 90 h)?
A: 392 ± 20 g/kg

Q: And the “WB Titer (Normalized)” value ([1]; age 90 h)?
A: 75.0 ± 2.7 Normalized

Q: And the “reduction of cell mass” value [2]?
A: 50%

Q: And the “reduction of total polysaccharide content” value [2]?
A: 65%

Q: And the “synthesis of protein and RNA” value [2]?
A: not adversely affected
